These results are taken from patent US6620828B2, “Thiazole compounds and pharmaceutical compositions for inhibiting protein kinases and methods for their use” (Agouron Pharmaceuticals, Inc., priority 1999, dated 2003).

Values joined by “and” are separate entries in the source; they are usually repeats but may differ in a detail not shown here. Equal entries are not always repeated.

Series [1] has as its target T1, phosphorylated VEGF-R2Δ50 (FLVK-P) (Homo sapiens, UniProt P35968, DEL940-989/E990V).
T1 construct: VEGF-R2Δ50 contains residues 806-939 and 990-1171; made in house; host or cells: baculovirus/insect cells
The experiment in a line: VEGF-R2 coupled spectrophotometric (FLVK-P) assay. It counts as biochemical. The gist of the method:
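Baculovirus-expressed human VEGF-R2Δ50 (residues 806-939/990-1171, E990V) was autophosphorylated with 3 mM ATP, 40 mM MgCl2 for 2 h at 4° C. ADP formation was coupled via PK/LDH to NADH oxidation, read at 340 nm, with 5.1 mM poly(E4Y1), 1 mM ATP, 25 mM MgCl2, Hepes pH 7.5. Ki came from activity across compound concentrations.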

The target in the next series is T2, FAKcd409 (Homo sapiens, UniProt Q05397, P410T).
T2 construct: comprises residues methionine 409 to glutamate 689; made in house; host or cells: baculovirus vector expression system
T2 sequence (Q05397 409-689 P410T): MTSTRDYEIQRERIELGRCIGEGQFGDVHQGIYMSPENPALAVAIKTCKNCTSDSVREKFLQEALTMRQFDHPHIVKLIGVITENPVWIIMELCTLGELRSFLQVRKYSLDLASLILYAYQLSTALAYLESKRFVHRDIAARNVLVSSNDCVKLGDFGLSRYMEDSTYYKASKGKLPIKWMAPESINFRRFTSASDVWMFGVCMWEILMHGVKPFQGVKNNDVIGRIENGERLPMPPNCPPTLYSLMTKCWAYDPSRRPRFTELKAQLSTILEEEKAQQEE
The series is described as follows: FAK HTS assay. It counts as biochemical. The conditions noted are these: 10 uM compound, HTS Delphia assay; 10 µM.

Another series deals with T3, FGF-R1 (Homo sapiens, UniProt P11362, C488A/C584S/L457V).
T3 construct: starting from the endogenous methionine residue 456 to glutamate 766; made in house; host or cells: baculovirus vector expression system
T3 sequence (P11362 456-766 L457V/C488A/C584S): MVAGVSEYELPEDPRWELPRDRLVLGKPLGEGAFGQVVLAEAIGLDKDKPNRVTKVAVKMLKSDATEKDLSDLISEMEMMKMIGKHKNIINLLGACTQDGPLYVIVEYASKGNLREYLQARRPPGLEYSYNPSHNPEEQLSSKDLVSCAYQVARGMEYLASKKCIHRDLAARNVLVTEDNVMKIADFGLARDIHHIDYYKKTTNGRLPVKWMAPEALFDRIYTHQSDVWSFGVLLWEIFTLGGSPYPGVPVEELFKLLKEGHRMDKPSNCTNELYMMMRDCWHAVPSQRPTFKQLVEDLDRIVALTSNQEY
The experiment in a line: FGF-R spectrophotometric assay. It counts as biochemical. The conditions noted are these: for inhibition at 1 µM: Table 3, % inh @ 1 uM, read-out: FGF-P Ki (nM) (% inh @ 1 uM). In short, it runs like this: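 Kinase domain (Met456–Glu766, baculovirus-expressed) used at 50 nM in a spectrophotometric assay run as for VEGF-R2. Substrates were 2 mM ATP and 15 mM poly(E4Y1).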

In series [2] the target is T4, LCK tyrosine kinase (Homo sapiens, UniProt P06239, C224D/P223M).
T4 construct: starting from amino acid residue 223 to the end of the protein at residue 509; made in house; host or cells: insect cells
T4 sequence (P06239 223-509 P223M/C224D): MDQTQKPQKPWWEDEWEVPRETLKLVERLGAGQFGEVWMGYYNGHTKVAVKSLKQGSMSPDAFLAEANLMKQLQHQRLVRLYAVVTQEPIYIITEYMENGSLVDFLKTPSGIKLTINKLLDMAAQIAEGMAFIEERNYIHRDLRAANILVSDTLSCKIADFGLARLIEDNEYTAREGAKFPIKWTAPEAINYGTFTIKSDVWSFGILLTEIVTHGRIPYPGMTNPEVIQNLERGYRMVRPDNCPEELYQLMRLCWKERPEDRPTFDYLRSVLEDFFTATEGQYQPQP
The experiment in a line: LCK spectrophotometric assay. It counts as biochemical. How it is done: LCK Construct for Assay: The LCK tyrosine kinase was expressed in insect cells as an N-terminal deletion starting from amino acid residue 223 to the end of the protein at residue 509, with the following two amino acid substitutions at the N-terminus: […] and C224D.
The spectrophotometric assay was carried out as described above for VEGF-R2, except for the following changes in concentration: LCK=60 nM, MgCl2=0 mM, poly(E4Y1)=20 mM.

The next series concerns VEGF. The experiment in a line: In vivo assay of retinal vascular development in neonatal rats. The settings on record: development model; intravitreal, 2 μl of 5 mg/ml initial drug concentration. Set-up: species or system rat. The source says: In Vivo Assay of Retinal Vascular Development in Neonatal Rats
The development of the retinal vascular in rats occurs from postnatal day 1 to postnatal day 14 (P1-P14). This process is dependent on the activity of VEGF (J. Stone, et al, J. Neurosci., 15, 4738 (1995)). […] To assess the ability of specific compounds to inhibit the activity of VEGF in vivo, compounds were formulated in an appropriate vehicle, usually 50% polyethylene glycol, average molecular weight 400 daltons, and 50% solution of 300 mM sucrose in deionized water. Typically, two microliters (2 μl) of the drug solution was injected into the midvitreous of the eye of rat pups on postnatal day 8 or 9. Six days after the intravitreal injection, the animals were sacrificed and the retinas dissected free from the remaining ocular tissue. […] The individual retinas are then flat-mount onto glass slides and examined to determine the extent of vascularization. […] The amount of vessel regression was used to assess the relative potency of the compounds after in vivo administration. Vessel regression is graded on subjective scale of one to three pluses, with one plus being detectable regression judged to be approximately 25 percent or less, two pluses being judged to be approximately 25-75% regression and three pluses give to retinas with near total regression (approximately 75% or greater).

Series [3] addresses T5, unphosphorylated VEGF-R2Δ50 (FLVK) (Homo sapiens, UniProt P35968, DEL940-989/E990V).
T5 construct: VEGF-R2Δ50 contains residues 806-939 and 990-1171; made in house; host or cells: baculovirus/insect cells
The experiment in a line: VEGF-R2 coupled spectrophotometric assay, unphosphorylated enzyme (FLVK). It counts as biochemical. The settings on record: Table 3; some entries 'Slow binder'. In short, it runs like this:
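Unphosphorylated VEGF-R2Δ50 (5 to 40 nM) with 20 mM poly(E4Y1), 3 mM ATP, 60 mM MgCl2, 2 mM MnCl2 in 200 mM Hepes pH 7.5. ADP production coupled via PK/LDH to NADH oxidation, read at 340 nm. Ki from activity at varying compound concentrations.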

Series [4] deals with human umbilical vein endothelial cells (HUVEC). The series is described as follows: HUVEC proliferation assay. It counts as cell-based. The conditions noted are these: Homo sapiens, HUVEC, Table 3. The gist of the method: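 Readout was MTT dye reduction (A595) after 72 h of stimulation with VEGF at 6 ng/ml final. Compound, in 0.1% DMSO final, was added 1 h before VEGF to HUVEC starved 24 h in 1% FBS. % inhibition was scaled between VEGF-alone and unstimulated wells; IC50 was fitted from triplicate dose curves.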

Series [5] deals with T4, LCK tyrosine kinase. The series is described as follows: LCK spectrophotometric assay. The settings on record: Table 3, read-out: LCK (% inh @ 1 uM). It counts as biochemical.
For series [6], the system named is lung cancer cells (line MV522). The series is described as follows: Cancer cell proliferation (MV522) assay. The conditions noted are these: MV522, Table 3. It counts as cell-based.
The test system of series [7] is VEGF dependent retinal neovascularization. The series is described as follows: In vivo assay in neonatal rat model of retinopathy of prematurity. The conditions noted are these: intravitreal injection. The procedure: In Vivo Assay of Retinal Vascular Development in Neonatal Rat Model of Retinopathy of Prematurity
A second model of VEGF dependent retinal neovascularization was employed to evaluate the activities of this series of compounds. In this model (Penn et. al, Invest. Ophthalmol. Vis. Sci., 36, 2063, (1995)), rats pups (n=16) with their mother are placed in a computer controlled chamber that regulates the concentration of oxygen. The animals are exposed for 24 hours to a concentration of 50% oxygen followed by 24 hours at a concentration of 10% oxygen. This alternating cycle of hyperoxia followed by hypoxia is repeated 7 times after which the animals are removed to room air (P14). Compounds are administered via intravitreal injection upon removal to room air and the animals are sacrificed 6 days later (P20). The isolated retinas are then isolated, stained mounted and analyzed as detail above in the development model. The effectiveness was also graded as is described for the development model.

T5 sequence (P35968 with tags, fused parts or gaps DEL940-989/E990V limits assumed): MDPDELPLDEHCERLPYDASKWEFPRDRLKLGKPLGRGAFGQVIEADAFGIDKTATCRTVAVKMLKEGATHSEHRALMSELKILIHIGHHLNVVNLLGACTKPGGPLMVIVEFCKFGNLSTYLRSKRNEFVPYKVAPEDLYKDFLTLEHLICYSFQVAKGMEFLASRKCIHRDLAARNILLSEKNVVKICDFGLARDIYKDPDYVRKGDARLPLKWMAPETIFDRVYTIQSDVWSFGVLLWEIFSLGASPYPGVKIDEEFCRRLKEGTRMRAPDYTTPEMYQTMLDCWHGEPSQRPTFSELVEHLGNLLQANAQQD
T1 sequence (P35968 with tags, fused parts or gaps DEL940-989/E990V limits assumed): as above

Turning to `COc1cc(Nc2nc(N)c(-c3nc(-c4ccccc4O)cs3)s2)cc(OC)c1OC` [A(23), 2-[4′-Amino-2′-(3,4,5-trimethoxy-phenylamino)-[2,5′]bithiazolyl-4-yl]-phenol], the melting point is 186 to 190 °C (dec.). The compound further returned a Ki in [1] (Table 2, spectrophotometric assay) of 39 nM. The “% inhibition of FAK” value on FAKcd409 is −5% and −6% and 4%. The “FGF-R % inhibition @ 5” value on FGF-R1 (Table 2, at 5 (head μM)) was found to be 47% @. Besides, at LCK tyrosine kinase [2] (Table 2, at 5 (head μM)), the “LCK % inhibition @ 5” value is reported as 34% @.
`CCn1nc(C)cc1C(=O)Nc1ccc(C)c(-c2noc(-c3sc(Nc4ccc(CO)cc4)nc3N)n2)c1` [B(30)]: in the series on VEGF, the Vessel regression grade entry is given as “++ (two pluses being judged to be approximately 25-75% regression)”. This compound displayed a Ki in series [3] of 0.085 nM.
For `COc1cccc(C(=O)Nc2ccc(Cl)c(-c3noc(-c4sc(Nc5cc(OC)c(OC)c(OC)c5)nc4N)n3)c2)c1` [D(65), N-(3-{5-[4-Amino-2-(3,4,5-trimethoxy-phenylamino)-thiazol-5-yl]-[1,2,4]oxadiazyl}-4-chloro-phenyl)-3-methoxy-benzamide], the results for the inhibition at 1 µM on FGF-R1 and at LCK tyrosine kinase [5] were 37% and 91%, respectively. In addition, the Ki worked out at 1 nM in series [3] and 9.3 nM at LCK tyrosine kinase [2] (Table 3, first value of cells with two values). For the same compound, the values for the IC50 in [4] and in series [6] were 4.3 nM and 2100 nM, respectively.
For `COc1cccc(C(=O)Nc2ccc(C)c(-c3noc(-c4sc(Nc5cc(OC)c(OC)c(OC)c5)nc4N)n3)c2)c1` [D(74), 3-[3-[(3-methoxybenzoyl)amino]-6-methyl-phenyl]-5-[2-[(3,4,5-trimethoxyphenyl)amino]-4-amino-5-thiazolyl]-1,2,4-oxadiazole], in series [7], the Vessel regression grade entry is reported as “++ (two pluses being judged to be approximately 25-75% regression)”. In series [1] (Table 3, at 50 nM), this compound returned an inhibition at 0.05 µM of 91%. Besides, the inhibition at 1 µM at FGF-R1 was determined as 61%; at LCK tyrosine kinase [5], 92%. For the same compound, the midpoint of inhibition in series [4], the IC50, lay at 5.2 nM.

For orientation: Ki means a measure of affinity in units of concentration, obtained from inhibition or displacement. In general, melting point refers to the temperature of the solid-liquid transition. For orientation: IC50 means the point on the concentration scale where inhibition reaches its midpoint. High values mean a need for much substance, low ones inhibition by little substance.
